In ChEMBL document CHEMBL1909046, “DrugMatrix in vitro pharmacology data”:

Tests used:
[1] = DRUGMATRIX: Purinergic P2X radioligand binding (ligand: [3H] alpha, beta-Methylene-ATP); type: cell membranes, Oryctolagus cuniculus, New Zealand albino, Urinary bladder, Membrane; details: Not Active = under 50% inhibition at 10 µM
Cytochrome P450 3A4 = Cytochrome P450 3A4 (Homo sapiens, UniProt P08684); details: bti-tn-5b1-4; further: in other assays of this panel Not Active means under 50% inhibition at 10 µM
Nitric oxide synthase 1 = Nitric oxide synthase 1 (Rattus norvegicus, UniProt P29476); type: tissue-based, Cerebellum; further: in other assays of this panel Not Active means under 50% inhibition at 10 µM
Caspase-1 = molecular target: T1, Caspase-1 (Homo sapiens, UniProt P29466); set-up: species or system Escherichia coli;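 further: Caspase-1 enzyme inhibition assay with a peptide substrate; in other assays of this panel Not Active means under 50% inhibition at 10 µM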
T1 sequence (P29466 whole entry): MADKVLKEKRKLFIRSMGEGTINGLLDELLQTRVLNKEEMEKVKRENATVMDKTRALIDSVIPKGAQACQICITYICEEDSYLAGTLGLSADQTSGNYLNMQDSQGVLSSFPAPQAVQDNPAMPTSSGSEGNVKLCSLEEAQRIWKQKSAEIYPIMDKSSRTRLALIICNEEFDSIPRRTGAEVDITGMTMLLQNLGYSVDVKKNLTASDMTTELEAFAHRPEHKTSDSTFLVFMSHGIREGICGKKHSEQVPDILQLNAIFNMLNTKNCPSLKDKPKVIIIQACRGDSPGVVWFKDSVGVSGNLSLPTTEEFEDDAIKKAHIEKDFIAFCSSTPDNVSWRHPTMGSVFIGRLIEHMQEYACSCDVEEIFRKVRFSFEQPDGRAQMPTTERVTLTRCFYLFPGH

[2] = molecular target: 5-hydroxytryptamine receptor 2B (Homo sapiens, UniProt P41595); type: cell membranes, CHO-K1, Membrane; further: in other assays of this panel Not Active means under 50% inhibition at 10 µM
Substance-P receptor = Substance-P receptor (Homo sapiens, UniProt P25103); type: cell membranes, Membrane; details: cho; further: in other assays of this panel Not Active means under 50% inhibition at 10 µM
Melanocortin receptor 4 = Melanocortin receptor 4 (Homo sapiens, UniProt P32245); type: cell membranes, Membrane; details: hek293; further: in other assays of this panel Not Active means under 50% inhibition at 10 µM
Melanocortin receptor 4, sequence (P32245 whole entry): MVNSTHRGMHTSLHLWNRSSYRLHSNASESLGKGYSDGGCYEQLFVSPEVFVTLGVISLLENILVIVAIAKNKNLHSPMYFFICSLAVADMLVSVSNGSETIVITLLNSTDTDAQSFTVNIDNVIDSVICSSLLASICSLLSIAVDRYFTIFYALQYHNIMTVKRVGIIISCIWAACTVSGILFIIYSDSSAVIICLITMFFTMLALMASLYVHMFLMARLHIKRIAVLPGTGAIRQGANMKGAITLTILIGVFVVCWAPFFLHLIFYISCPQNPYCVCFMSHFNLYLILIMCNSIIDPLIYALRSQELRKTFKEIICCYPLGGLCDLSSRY

Substance-P receptor, sequence (P25103 whole entry): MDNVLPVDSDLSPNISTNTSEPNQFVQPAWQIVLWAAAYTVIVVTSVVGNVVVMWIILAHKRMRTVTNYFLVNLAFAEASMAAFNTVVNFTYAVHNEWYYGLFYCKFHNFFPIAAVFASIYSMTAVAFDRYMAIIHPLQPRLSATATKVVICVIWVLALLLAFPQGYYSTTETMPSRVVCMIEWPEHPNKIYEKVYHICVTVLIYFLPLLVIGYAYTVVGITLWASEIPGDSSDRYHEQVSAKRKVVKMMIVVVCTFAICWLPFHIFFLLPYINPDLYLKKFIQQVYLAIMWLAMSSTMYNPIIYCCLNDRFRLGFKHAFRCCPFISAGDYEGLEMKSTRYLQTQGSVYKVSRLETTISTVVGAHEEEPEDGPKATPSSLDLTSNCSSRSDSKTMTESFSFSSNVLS
Cytochrome P450 3A4, sequence (P08684 whole entry): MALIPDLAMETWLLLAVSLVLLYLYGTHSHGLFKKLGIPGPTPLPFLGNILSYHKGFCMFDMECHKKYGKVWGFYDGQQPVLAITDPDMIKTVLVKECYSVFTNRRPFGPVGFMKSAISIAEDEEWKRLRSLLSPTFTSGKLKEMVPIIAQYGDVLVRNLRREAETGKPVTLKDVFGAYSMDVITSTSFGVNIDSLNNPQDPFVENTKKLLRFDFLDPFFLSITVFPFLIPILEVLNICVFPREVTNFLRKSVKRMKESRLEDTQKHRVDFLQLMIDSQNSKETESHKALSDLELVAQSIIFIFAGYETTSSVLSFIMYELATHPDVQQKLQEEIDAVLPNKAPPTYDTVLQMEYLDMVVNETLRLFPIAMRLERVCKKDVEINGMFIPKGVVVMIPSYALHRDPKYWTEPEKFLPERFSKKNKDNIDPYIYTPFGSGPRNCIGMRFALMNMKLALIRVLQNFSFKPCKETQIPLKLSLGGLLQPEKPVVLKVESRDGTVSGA
5-hydroxytryptamine receptor 2B, sequence (P41595 whole entry): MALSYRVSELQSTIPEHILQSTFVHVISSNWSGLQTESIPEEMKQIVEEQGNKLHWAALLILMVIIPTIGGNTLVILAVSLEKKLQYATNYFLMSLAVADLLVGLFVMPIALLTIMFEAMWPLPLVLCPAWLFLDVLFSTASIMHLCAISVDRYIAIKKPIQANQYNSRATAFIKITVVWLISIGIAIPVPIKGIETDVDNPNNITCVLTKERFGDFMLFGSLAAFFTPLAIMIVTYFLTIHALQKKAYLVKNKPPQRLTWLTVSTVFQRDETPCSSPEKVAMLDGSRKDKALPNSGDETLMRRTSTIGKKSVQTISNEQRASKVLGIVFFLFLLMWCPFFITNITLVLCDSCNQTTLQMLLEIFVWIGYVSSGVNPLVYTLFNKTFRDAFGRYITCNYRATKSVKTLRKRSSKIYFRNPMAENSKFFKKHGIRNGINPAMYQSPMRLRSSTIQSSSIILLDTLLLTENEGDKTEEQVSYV
Nitric oxide synthase 1, sequence (P29476 whole entry): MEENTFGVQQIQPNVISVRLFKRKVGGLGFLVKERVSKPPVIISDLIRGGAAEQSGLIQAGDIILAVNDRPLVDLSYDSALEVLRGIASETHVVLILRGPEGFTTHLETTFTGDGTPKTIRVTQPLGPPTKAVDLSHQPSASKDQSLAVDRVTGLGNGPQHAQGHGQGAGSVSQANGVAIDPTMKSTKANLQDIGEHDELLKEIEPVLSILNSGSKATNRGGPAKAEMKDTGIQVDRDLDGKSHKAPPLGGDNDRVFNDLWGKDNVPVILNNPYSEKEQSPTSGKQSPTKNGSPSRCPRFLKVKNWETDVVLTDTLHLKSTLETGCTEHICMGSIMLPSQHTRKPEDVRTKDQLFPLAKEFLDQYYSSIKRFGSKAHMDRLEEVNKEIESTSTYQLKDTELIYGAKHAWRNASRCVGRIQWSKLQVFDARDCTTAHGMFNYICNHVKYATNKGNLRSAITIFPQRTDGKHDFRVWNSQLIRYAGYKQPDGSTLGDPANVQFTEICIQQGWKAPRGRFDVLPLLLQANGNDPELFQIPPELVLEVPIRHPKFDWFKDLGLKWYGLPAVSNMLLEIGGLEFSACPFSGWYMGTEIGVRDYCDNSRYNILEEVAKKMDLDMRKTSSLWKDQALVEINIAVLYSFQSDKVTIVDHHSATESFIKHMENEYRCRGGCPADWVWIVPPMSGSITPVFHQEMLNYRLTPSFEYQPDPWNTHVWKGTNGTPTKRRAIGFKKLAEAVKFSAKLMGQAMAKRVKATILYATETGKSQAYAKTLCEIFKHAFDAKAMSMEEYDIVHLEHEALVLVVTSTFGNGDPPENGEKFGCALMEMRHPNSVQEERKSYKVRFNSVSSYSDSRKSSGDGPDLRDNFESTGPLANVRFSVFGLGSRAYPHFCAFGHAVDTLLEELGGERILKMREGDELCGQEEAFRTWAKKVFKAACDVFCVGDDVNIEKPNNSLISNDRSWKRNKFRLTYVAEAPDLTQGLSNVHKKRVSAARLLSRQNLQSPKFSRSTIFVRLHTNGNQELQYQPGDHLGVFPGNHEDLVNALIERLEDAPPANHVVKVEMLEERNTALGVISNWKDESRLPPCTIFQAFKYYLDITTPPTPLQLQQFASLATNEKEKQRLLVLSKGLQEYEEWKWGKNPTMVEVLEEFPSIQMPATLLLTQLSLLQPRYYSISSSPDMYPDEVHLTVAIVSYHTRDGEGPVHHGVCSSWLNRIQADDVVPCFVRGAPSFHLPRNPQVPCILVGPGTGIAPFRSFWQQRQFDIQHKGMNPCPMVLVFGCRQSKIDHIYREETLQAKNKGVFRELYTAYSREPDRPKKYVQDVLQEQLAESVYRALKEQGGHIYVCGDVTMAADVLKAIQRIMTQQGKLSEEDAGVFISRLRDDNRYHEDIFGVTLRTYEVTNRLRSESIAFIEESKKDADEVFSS

Compound	IC50 [1]	Ki [1]	IC50 (Cytochrome P450 3A4)	Ki (Cytochrome P450 3A4)	IC50 (Nitric oxide synthase 1)	IC50 (Caspase-1)	IC50 ([2]; cho-k1)	IC50 (Substance-P receptor)	IC50 (Melanocortin receptor 4)	IC50 ([2]; read-out: IC50)	Ki ([2]; read-out: Ki)	Ki (Nitric oxide synthase 1)	Ki (Caspase-1)	Ki ([2]; cho-k1)	Ki (Substance-P receptor)	Ki (Melanocortin receptor 4)
CC(=O)Nc1c(I)c(NC(C)=O)c(I)c(C(=O)O)c1I [DIATRIZOIC ACID]	Not Active	Not Active	Not Active	Not Active	Not Active	Not Active	Not Active	Not Active	Not Active							
Cc1cc(=O)n(-c2ccccc2)n1C [ANTIPYRINE]	Not Active	Not Active	Not Active	Not Active	Not Active	Not Active	Not Active	Not Active	Not Active							
CC1(C)O[C@@H]2C[C@H]3[C@@H]4C[C@H](F)C5=CC(=O)CC[C@]5(C)[C@H]4[C@@H](O)C[C@]3(C)[C@]2(C(=O)CO)O1 [FLURANDRENOLIDE]	Not Active	Not Active	Not Active	Not Active	Not Active	Not Active	Not Active	Not Active	Not Active							
CC(=O)OCC(=O)[C@@]1(O)CC[C@H]2[C@@H]3CCC4=CC(=O)CC[C@]4(C)[C@H]3C(=O)C[C@@]21C [CORTISONE ACETATE]	Not Active	Not Active	Not Active	Not Active	Not Active	Not Active	Not Active	Not Active	Not Active							
CCN1CC(CCN2CCOCC2)C(c2ccccc2)(c2ccccc2)C1=O (stereo not drawn) [DOXAPRAM]	Not Active	Not Active	Not Active	Not Active	Not Active	Not Active	Not Active	Not Active	Not Active							
NC(=O)c1cnccn1 [PYRAZINAMIDE]	Not Active	Not Active	Not Active	Not Active	Not Active	Not Active	Not Active	Not Active	Not Active							
O=C1CC[C@H](N2C(=O)c3ccccc3C2=O)C(=O)N1	Not Active	Not Active	Not Active	Not Active	Not Active	Not Active	Not Active	Not Active	Not Active							
ClC(Cl)Cl [CHLOROFORM]	Not Active	Not Active	Not Active	Not Active	Not Active	Not Active	Not Active	Not Active	Not Active							
CCc1c2c(nc3ccc(OC(=O)N4CCC(N5CCCCC5)CC4)cc13)-c1cc3c(c(=O)n1C2)COC(=O)[C@]3(O)CC [IRINOTECAN]	Not Active	Not Active	Not Active	Not Active	Not Active	Not Active	Not Active	Not Active	Not Active							
CCCN(CCC)C(=O)C(CCC(=O)O)NC(=O)c1ccccc1 (stereo not drawn) [PROGLUMIDE]	Not Active	Not Active	Not Active	Not Active	Not Active	Not Active	Not Active	Not Active	Not Active							
CCCC(CCC)C(=O)O [VALPROIC ACID]	Not Active	Not Active	Not Active	Not Active	Not Active	Not Active	Not Active	Not Active	Not Active							
Cc1ccccc1C(=O)N1CCC(Cc2ccccc2)CC1	Not Active	Not Active	Not Active	Not Active	Not Active	Not Active		Not Active	Not Active	1860 nM	1180 nM					
CCCC(=O)Nc1ccc(OCC(O)CNC(C)C)c(C(C)=O)c1 (stereo not drawn) [ACEBUTOLOL]	Not Active	Not Active	Not Active	Not Active	Not Active	Not Active	Not Active	Not Active	Not Active							
OC(CCN1CCCCC1)(c1ccccc1)C1CCCCC1 (stereo not drawn) [TRIHEXYPHENIDYL]	Not Active	Not Active	Not Active	Not Active	Not Active	Not Active	Not Active	Not Active	Not Active							
Cc1ccc(S(=O)(=O)NC(=O)NN2CC3CCCC3C2)cc1 (stereo not drawn) [GLICLAZIDE]	Not Active	Not Active	Not Active	Not Active	Not Active	Not Active	Not Active	Not Active	Not Active							
N=C(N)NC(=O)c1nc(Cl)c(N)nc1N [AMILORIDE]	Not Active	Not Active	Not Active	Not Active	Not Active	Not Active	Not Active	Not Active	Not Active							
CC(C)(Oc1ccc(C2CCCc3ccccc32)cc1)C(=O)O (stereo not drawn) [NAFENOPIN]	Not Active	Not Active	Not Active	Not Active	Not Active	Not Active	Not Active	Not Active	Not Active							
Cc1cc2cc3c(C)cc(=O)oc3c(C)c2o1 [TRIOXSALEN]	Not Active	Not Active	Not Active	Not Active	Not Active	Not Active	Not Active	Not Active	Not Active							
Oc1ccc(OCc2ccccc2)cc1 [MONOBENZONE]	Not Active	Not Active	Not Active	Not Active	Not Active	Not Active	Not Active	Not Active	Not Active							
COc1cccc2c1C(=O)c1c(O)c3c(c(O)c1C2=O)C[C@@](O)(C(=O)CO)C[C@@H]3O[C@H]1C[C@H](N)[C@@H](O)[C@H](C)O1 [EPIRUBICIN]	Not Active	Not Active	Not Active	Not Active	Not Active	Not Active	Not Active	Not Active	Not Active							
C#C[C@]1(O)CC[C@H]2[C@@H]3CCc4cc(OC)ccc4[C@H]3CC[C@@]21C [MESTRANOL]	Not Active	Not Active	Not Active	Not Active	Not Active	Not Active	Not Active	Not Active	Not Active							
CC(=O)Nc1ccc(O)cc1 [ACETAMINOPHEN]	Not Active	Not Active	Not Active	Not Active	Not Active	Not Active	Not Active	Not Active	Not Active							
CCCCN1CCCCC1C(=O)Nc1c(C)cccc1C.Cl (stereo not drawn) [BUPIVACAINE HYDROCHLORIDE]	Not Active	Not Active	Not Active	Not Active	Not Active	Not Active	Not Active	Not Active	Not Active							
Nc1ccn([C@@H]2CS[C@H](CO)O2)c(=O)n1 [LAMIVUDINE]	Not Active	Not Active	Not Active	Not Active	Not Active	Not Active	Not Active	Not Active	Not Active							
COP(=O)(OC)OC=C(Cl)Cl [DICHLORVOS]	Not Active	Not Active	Not Active	Not Active	Not Active	Not Active	Not Active	Not Active	Not Active							
CADMIUM DICHLORIDE	Not Active	Not Active	Not Active	Not Active	Not Active	Not Active	Not Active	Not Active	Not Active			Not Active	Not Active	Not Active	Not Active	Not Active
C[C@](O)(CS(=O)(=O)c1ccc(F)cc1)C(=O)Nc1ccc(C#N)c(C(F)(F)F)c1 [(R)-BICALUTAMIDE]	Not Active	Not Active	Not Active	Not Active	Not Active	Not Active	Not Active	Not Active	Not Active							
Cc1nccn1CC1CCc2c(c3ccccc3n2C)C1=O (stereo not drawn) [ONDANSETRON]	Not Active	Not Active	Not Active	Not Active	Not Active	Not Active		Not Active	Not Active	717 nM	456 nM					
CCOC(=O)[C@H](CCc1ccccc1)N[C@H]1CCc2ccccc2N(CC(=O)O)C1=O [BENAZEPRIL]	Not Active	Not Active	Not Active	Not Active	Not Active	Not Active	Not Active	Not Active	Not Active							
